Consider eight compounds from ChEMBL document CHEMBL2417415, “Polyketides with New Delhi metallo-β-lactamase 1 inhibitory activity from Penicillium sp” (J Nat Prod, 2013).

Molecules are shown by their SMILES. pIC50: −log10 of the molar value. Converted amounts (≈) assume the structure as drawn. The source made the active and inactive calls.

Experiment [1] in a line: Inhibition of NDM-1 (unknown origin) expressed in Escherichia coli BL21 using meropenem as substrate compound preincubated for 15 min by spectrophotometry.
Another experiment concerns HCT-8. Briefly: Cytotoxicity assay against human HCT8 cells at 10 uM after 96 hrs by MTT assay. Format: functional, cell-based. (Tetrazolium dyes change colour on reduction, which living cells bring about.)
Experiment [2] deals with Influenza A virus. Briefly: Antiviral activity against influenza A virus A/Hanfang/359/95 (H3N2) infected in MDCK cells at 10 uM by Reed and Muench analysis. It is filed as functional, organism-based.
The subject of another experiment is A549. Briefly: Cytotoxicity assay against human A549 cells at 10 uM after 96 hrs by MTT assay. Format: functional, cell-based.
A further experiment concerns MCF7. Briefly: Cytotoxicity assay against human MCF7 cells at 10 uM after 96 hrs by MTT assay. Format: functional, cell-based.
For a further experiment, the system named is Coxsackievirus B3. Briefly: Antiviral activity against Coxsackievirus B3 at 10 uM. Format: functional, organism-based.
For the next experiment, the system named is KETR3. Briefly: Cytotoxicity assay against human Ketr3 cells at 10 uM after 96 hrs by MTT assay. It is filed as functional, cell-based.
For the next experiment, the system named is Bel-7402. Briefly: Cytotoxicity assay against human Bel7402 cells at 10 uM after 96 hrs by MTT assay. It is filed as functional, cell-based.
The next experiment concerns BGC-823. Briefly: Cytotoxicity assay against human BGC823 cells at 10 uM after 96 hrs by MTT assay. Format: functional, cell-based.
In experiment [3] the test system is Influenza A virus. Briefly: Antiviral activity against influenza A virus A/FM/1/47 (H1N1) infected in MDCK cells at 10 uM by Reed and Muench analysis. Format: functional, organism-based.
Experiment [4] has as its system Klebsiella pneumoniae. Briefly: Antibacterial activity against Klebsiella pneumoniae ATCC BAA-2146 at 10 uM after 24 hrs by spectrophotometry. Format: functional, organism-based.
Experiment [5] deals with Klebsiella pneumoniae. Briefly: Antibacterial activity against Klebsiella pneumoniae ATCC BAA-2146 at 256 ug/mL after 24 hrs by spectrophotometry. Format: functional, organism-based.
Experiment [6] concerns Klebsiella pneumoniae. Briefly: Antibacterial activity against Klebsiella pneumoniae ATCC BAA-2146 assessed as reduction in meropenem MIC at 128 ug/mL after 24 hrs by spectrophotometry. Format: functional, organism-based.
Experiment [7] relates to Klebsiella pneumoniae. Briefly: Antibacterial activity against Klebsiella pneumoniae ATCC BAA-2146 after 24 hrs by spectrophotometry. It is filed as functional. To be noted: ATCC BAA-2146, 24 h.

As usually defined, the pIC50 is the IC50 on a negative log10 scale, so that one unit is a factor of ten. High values mean a small IC50, low ones a large IC50. `C[C@H](CS)C(=O)N1CCC[C@@H]1C(=O)O` [D-CAPTOPRIL] had a pIC50 in experiment [1] of 5.10.
`C[C@H](CS)C(=O)N1CCC[C@H]1C(=O)O` [CAPTOPRIL] gave a pIC50 in experiment [1] of 3.97.
With `C[C@H]1C[C@@H](O)[C@@H]2O[C@@H]2[C@H]1O`, the result in the experiment with HCT-8, with Influenza A virus [2], in the experiment on A549, in the experiment on MCF7, with Coxsackievirus B3 and with KETR3 was inactive. Besides, the result with Bel-7402, in the experiment on BGC-823, in the experiment with Influenza A virus [3] and in the experiment with Klebsiella pneumoniae [4] was inactive.
On to `O=C(O)CN(CCN(CC(=O)O)CC(=O)O)CC(=O)O` [EDETIC ACID], for which, in [1], the negative logarithm of the IC50 (pIC50) was greater than 7.00.
Consider `O=C(O)C[C@H](NC(=O)c1cc(=O)[nH]c2ccccc12)C(=O)O`, for which the outcome in the experiment on HCT-8, in the experiment with Influenza A virus [2], in the experiment on A549, in the experiment on MCF7, with Coxsackievirus B3 and in the experiment on KETR3 was inactive. The outcome in the experiment with Bel-7402, in the experiment with BGC-823, with Influenza A virus [3] and in the experiment with Klebsiella pneumoniae [4] was inactive.
Regarding `COc1c(O)cc2oc3cc(C)ncc3c(=O)c2c1C(=O)O`, the outcome with HCT-8, in the experiment with Klebsiella pneumoniae [5], in the experiment on Influenza A virus [2], in the experiment on A549, in the experiment on MCF7 and in the experiment with Coxsackievirus B3 was inactive. Also, the outcome in the experiment with KETR3, with Bel-7402, in the experiment with Klebsiella pneumoniae [6], in the experiment with BGC-823, in the experiment on Influenza A virus [3] and in the experiment on Klebsiella pneumoniae [4] was inactive. The same compound showed a negative-log IC50 (pIC50) in experiment [1] of 4.06.
A word on the MIC: it is the smallest concentration in the dilution series that meets the test's criterion for growth inhibition. Higher therefore signals a need for much substance. As to `C[C@@H](O)[C@H]1C(=O)N2C(C(=O)O)=C(S[C@@H]3CN[C@H](C(=O)N(C)C)C3)[C@H](C)[C@H]12` [MEROPENEM], the MIC against Klebsiella pneumoniae [7] turned out to be 128 µg/mL (≈ 334 µM).
Take `CC(=O)C[C@H](O)c1coc2cc(O)cc(C(=O)O)c2c1=O`: the outcome in the experiment on HCT-8, in the experiment with Klebsiella pneumoniae [5], with Influenza A virus [2], in the experiment on A549, with MCF7 and with Coxsackievirus B3 was inactive. Moreover, the result in the experiment on KETR3, in the experiment on Bel-7402, in the experiment on Klebsiella pneumoniae [6], with BGC-823, in the experiment with Influenza A virus [3] and with Klebsiella pneumoniae [4] was inactive. This compound had a pIC50 in [1] of 4.02.
